Results: patent US7220732B2, “Compounds useful as photodynamic therapeutic agents” (priority 2002, dated 2007)
pEC50: −log10 of the molar value. Where two headings read alike, the source gives them in different places.

Experiments:
Format in all cases: cell-based
HeLa cells = test: Fluorescence microscopy uptake study in HeLa cells; conditions: 10^−5 M, water/Cremophor
Protocol: Cells were seeded at a density of 30,000 cells/well in chamber slides and allowed to adhere for 24 hr. A compound of the present invention (10^−5 M) was then added to each chamber and incubated at 37° C. in the dark over time, for example, 15 min, 30 min, 1 hr, 3 hr and 6 hr. The medium was removed after the specified time and the cells were washed 4 times with medium free of that compound of the invention. The cells were then fixed with 3.7% (v/v) formaldehyde for 15 min at 37° C. The fixative solution was removed and the cells were washed twice with sterile PBS. DAPI nuclear stain (1/1000) was then incubated with the cells for 10 is min at 37° C., following which the cells were washed twice with PBS. Cells were then mounted in Vectashield (Trade Mark) mounting medium.
LabWorks (Bioimaging Systems) was used to calculate the average fluorescence intensity per cell for each of the different time points used in the uptake and efflux studies for the compounds of the present invention. […] The DAPI filter was used to accurately count the number of cells in each field of view and the rhodamine filter was used to quantify the fluorescence of the compounds of the present invention. […]
Using the assay method set out above under the heading “Fluorescence Microscopy”, the uptake of 2a was examined for HeLa and MRC5 […] cell lines and the data are illustrated in FIGS. 6a and 6b, respectively. […]

HeLa cancer cells = test: Preliminary light toxicity assay; conditions: 24 hours exposure, 15 minutes irradiation >570 nm
Protocol: HeLa cancer calls were exposed to 2a in varying concentrations for 24 hours. 2a laden medium was removed and replaced with fresh medium. Cells were irradiated at constant temperature of 37° C. for 15 minutes with light from a 100 W or 500 W halogen lamp passed through a red glass and water filter barrier, thereby ensuring cells are irradiated with light of more than 570 nm. Irradiated cells were incubated for a further 24 hrs at 37° C. MT cell viability assay was performed.
The dark toxicity effect may be caused by the micellar delivery vehicle itself.

MRC5 cells = test: Light/dark cytotoxicity study (MTT) in MRC5 cells
Protocol: MRC5 and HeLa cell cultures were maintained in MEM (minimum essential medium) containing 10% (v/v) foetal calf serum (FCS), 1% (v/v) non-essential amino acids, 2 μg/ml Fungizone (Trade Mark) (amphotericin B), 50 μg/ml penicillin, 50 μg/ml streptomycin, 20 mM HEPES and 1% (v/v) L-Glutamine. Cells were passaged at least twice before use in the cytotoxicity assays.
Stock haematoporphyrin water-dimethyl sulphoxide (DMSO) (100:1 (v/v)) solutions were diluted with MEM containing 10% FCS. Cells were seeded at 5,000 cells/well in 96-well plates and incubated for 24 hr at 37° C. The 24 hour incubation period was chosen having regard to the slower uptake of haernatoporphyrin in the absence of Cremophor, when compared to the compounds of the present invention in the presence of Cremophor (see below). Cells were then incubated with haematoporphyrin in the dark for 24 hr at 37° C. The haematoporphyrin laden culture medium was then removed by filtration, the cells were washed with PBS and fresh culture medium was added to each well. A 500 W light source, passed through a red glass and water filter barrier, (to ensure cells are irradiated with light of wavelength greater than 570 nm) was used to irradiate the plates for both 15 and 30 min. Following irradiation, the cells were incubated for a further 48 hr at 37° C. before being assessed for cell survival.
Stock 2a or 2b water-Cremophor EL (Trade Mark—CAS 61791-12-6) (1:250 (v/v)) solutions were diluted with MEM containing 10% FCS. Cells were seeded at 5,000 cells/well in 96-well plates and incubated for 24 hr at 37° C. Cells were then incubated with 2a or 2b in the dark for 3 hr at 37° C. The 3 hour incubation period was chosen to reflect the faster cellular uptake of 2a or 2b in the presence of Cremophor, when compared to the cellular uptake of haematoporphyrins in the absence of Cremophor. The 2a or 2b laden culture medium was then removed by filtration, the cells were washed with PBS and fresh culture medium was added to each well. The plates were then irradiated using a 500 W light source passed through a red glass and water filter barrier, (thereby ensuring cells are irradiated with light of wavelength greater than 570 nm) for both 15 and 30 min.
Following irradiation, the cells were incubated for a further 48 hr at 37° C. before being assessed for cell survival. The dark toxicity of compounds of the present invention was also assessed in each experiment.
Cell viability was estimated using the standard MTT (microtiter tetrazolium) assay. This assay measures mitochondrial dehydrogenase activity and is based on the reduction of a soluble yellow tetrazolium salt to a blue, insoluble MTT formazan product by this enzyme. The subsequent colour change produced by viable cells was quantified using a plate reader (VICTOR^2 1420 multilabel HTS counter, Wallac). As mentioned above under the headings “Cytotoxicity”, the cells are incubated at 37° C. for 48 hours, following which the MTT solution was added to the cells at a final concentration of 0.5 mg/ml and incubated for 3 hr at 37° C. The MTT solution was then removed by filtration and 100 μl DMSO was added to each well in order to lyse the cells and release the formazan dye. The plates were read 1 hr later at 540 nm.
Prism (Trade Mark) […] was used to graph the data obtained from the MTT assays and the uptake/efflux experiments. This programme allows non-linear regression analysis and the generation of sigmoidal dose response curves. Prism (Trade Mark) also automatically calculates EC50 values.
Light toxicity assays were also carried out as described above under “Assay methods” in HeLa and MRC5 cells for haematoporphyrin (FIGS. 9 and 10), 2a (FIGS. 11 and 12) and 2b (FIGS. 13 and 14).

Question: With `F[B-]1(F)n2c(-c3ccccc3)cc(-c3ccccc3)c2N=C2C(c3ccccc3)=CC(c3ccccc3)=[N+]21` [Compound 2a] as the molecule, how does the “time of maximum uptake” value (HeLa cells) read?
Answer: Its value is 300 min.

Question: What about the dose response (HeLa cancer cells; 100 W light source, compared with 500 W) of the same molecule?
Answer: Its dose response is “poorer response”.

Question: What about the pEC50 (HeLa cancer cells; 500 W light source) of the same molecule?
Answer: Its pEC50 is 6.00.

Question: And the pEC50 (MRC5 cells; MRC5, 0 J/cm^2 light (no light), read-out: EC50 (dark toxicity))?
Answer: Its pEC50 is 5.46.

Question: And the pEC50 (MRC5 cells; MRC5, 8 J/cm^2 light (15 mins from a 500 W light source), read-out: EC50)?
Answer: The pEC50 was 5.70.

Question: What about the pEC50 (MRC5 cells; MRC5, 16 J/cm^2 light (30 mins from a 500 W light source), read-out: EC50) of the same molecule?
Answer: Its pEC50 is 6.34.
